Experiment [1] relates to Sprague-Dawley rats, retinal ischemia/reperfusion (I/R) injury. The experiment in a line: Histological (H&E) evaluation of I/R-induced retinal injury (14 days). It counts as in vivo. The note with it: rat, 14 days after I/R injury. On the procedure:
(§1) Experimental procedures were approved by the Mackay Memorial Hospital Review Board (Taiwan, R.O.C.). All surgeries were performed under aseptic conditions. Adult 10-week-old male Sprague-Dawley rats (initial body weight=312±11 g) were anesthetized by an intraperitoneal injection of xylazine (10 mg/kg). Peptide was dissolved in 0.85% normal saline to 1 mM and delivered by the subconjunctival injection of 100 μL peptide through a 31-Gneedle with a micro-syringe before the induction of I/R. Normal saline was as a vehicle control. Rat I/R was performed after peptide or vehicle injection for 4 h. Pupils were dilated with 0.5% tropicamide and 0.5% phenylephrine. Body temperature was maintained at 37° C. using a heating blanket After dilation of the pupil, the anterior chamber of the right eye was cannulated with a 27-gauge needle connected to a physiological saline reservoir. The intraocular pressure (IOP) was raised to 110 mmHg by keeping the reservoir at 150 cm above the eye, and retinal ischemia was confirmed by observing whitening of the iris and the loss of the red reflex of the retina. After 90 min of ischemia, the cannulating needle was withdrawn and the IOP was returned to normal pressure, resulting in recovery of the blood supply from the retinal artery and reperfusion injury induced. The reperfusion was evident by the return of the red reflex. Corneal analgesia was achieved using 1 or 2 drops of 0.4% oxybuprocaine hydrochloride, and Ofloxacin ophthalmic gel (0.3%) was applied topically to the eye before and after the procedure. Only the right eye was used in all experiments. A sham procedure was performed at left eye served as an intra-animal control.
Rats (n=6 in each group) were euthanized using an overdose of pentobarbital (intravenously 100 mg/kg of bodyweight) at 14 days after the I/R injury, the eyeballs were marked at the 12 o'clock position of the cornea with silk suture, and then enucleated and fixed in 4% paraformaldehyde(PFA) at 4° C. for 24 h. After fixation, the anterior segment was removed, and the posterior eyeball containing the optic disc was dehydrated in a graded ethanol series and embedded in paraffin. […] To quantify the degree of I/R damage in the retina, we measured the overall central retinal thicknesses (OT, between the GCL to ONL), the inner nuclear layer (INL), and the outer nuclear layer (ONL). The number of cells in the ganglion cell layer (GCL) was calculated using the linear cell density (cells per 200 μm). Three sections per eye were averaged and the mean of six eyes was recorded as the representative value for each group.

Experiment [2] has the same test system. Nature of the experiment: Immunofluorescence staining of retinal microglia/astrocytes 14 days after I/R injury. It counts as in vivo. As to conditions: rat. On the procedure:
as §1, with “Only the right eye was used in all experiments. A sham procedure was performed at left eye served as an intra-animal control.” left out
Deparaffinized retinal sections were blocked with 10% goat serum and 5% bovine serum albumin (BSA) in PBS containing 0.5% TritonX-100 (PBST) for 20 min at room temperature for blocking nonspecific staining. […] The slides were then rinsed with PBST three times, mounted with FluorSave™ reagent (Calbiochem) and viewed with an epifluorescence microscope (Zeiss Axioplan 2 imaging; Zeiss, Oberkochen, Germany) Three sections per eye were averaged and the mean of six eyes was recorded as the representative value for each group.

The test system is the same in experiment [3]. Nature of the experiment: TUNEL staining of I/R-injured rat retina (20 h). Format: in vivo. The method, then: as §1
After I/R for 20 h, rats (n=6 in each group) were euthanized by an overdose of pentobarbital. Enucleated eyeballs were fixed in 4% PFA for 24 h at 4° C. Fixed retinal tissues were embedded in paraffin. To identify apoptosis of retinal cells, 5 μm sections thick cut through the optic disc, de-paraffinized, rehydrated, incubatedwith 20 μg/mL proteinase K for 10 min, and immunofluorescence staining of apoptotic cells was performed using a terminal deoxynucleotidyl transferase(TdT)-mediated dUTP nick-end labeling (TUNEL)-based kit (Roche Molecular Biochemicals, Indianapolis, IN) according to the manufacturer's instructions. Nuclei were located by counterstaining with Hoechst 33258 for 7 min Sections were observed under an epifluorescence microscope (Zeiss Axioplan 2 imaging; Zeiss, Oberkochen, Germany) equipped with a charge-coupled device (CCD) camera (Zeiss AxioCam HRm, Zeiss) (×400, 6 fields/sample), and quantification was performed using Axiovert software (Zeiss AxioVision Release 4.8.2, Zeiss). Three sections per eye were averaged and the mean of six eyes was recorded as the representative value for each group.
In this example, the neuroprotective effect of the 6-mer variant peptides on neural retina cells and retinal capillary system was investigated using a rat model of I/R injury described in the “Material and Methods” section. Briefly, 6-mer variant peptide (1 mM, 120 μl) was injected into the subconjunctival space of Sprague-Dawley rats for 4 h before the induction of I/R. Then, I/R injury was induced in rat retinas by increasing the intraocular pressure (IOP) in the eye to 110 mmHg for 90 min, followed by 20 h of reperfusion. Subsequently, the level of retinal cell apoptosis was evaluated using TUNEL staining. In addition, the retinal morphology was analyzed with H&E staining 14 days after the I/R injury. Results are summarized in FIGS. 6 to 10, and Tables 6 to 9.

Experiment [4] deals with STAT3. Nature of the experiment: Western blot of STAT3 phosphorylation in C2C12 cells. Format: cell-based, mouse. The note with it: C2C12 myoblast cells, 5 to 20 min after stimulation. The method, then: Cell lysis, fractionation, and SDS-PAGE were conducted in accordance with procedures described previously (Yang Y C et al., BMC Cancer 2007; 7:216). Antibodies used in this study were for Phospho-Stat3 and STAT3 (1:1000-fold dilution). Proteins of interest were detected using the appropriate IgG-HRP secondary antibody (Santa Cruz Biotechnology) and ECL reagent (Amersham Biosciences).

“NH2-(D-Ser)-Leu-Gly-Ala-Glu-Gln-COOH (SLGAEQ; HELM PEPTIDE1{[dS].L.G.A.E.Q}$$$$V2.0; SMILES CC(C)C[C@H](NC(=O)[C@H](N)CO)C(=O)NCC(=O)N[C@@H](C)C(=O)N[C@@H](CCC(=O)O)C(=O)N[C@@H](CCC(N)=O)C(=O)O) [6-mer dS]”: the “INL Thickness” value in experiment [1] (H&E, Control 70.7 ± 2.4, Vehicle + I/R 51.6 ± 0.8) worked out at 71.3 ± 7.5 μm. The “ONL Thickness” value in experiment [1] (H&E, Control 139.8 ± 4.2, Vehicle + I/R 125.8 ± 4.5) is 133.4 ± 7.7 μm. Further, in experiment [1] (H&E, Control 326.2 ± 9.4, Vehicle + I/R 260.8 ± 7.1), the “Total Thickness (From GCL to INL)” value came out at 308.9 ± 11.2 μm. Further, the “overall retinal thickness, in words” value in experiment [1] (single subconjunctival injection) is listed as “improved the overall retinal thickness to a level similar to that in the shame control group”. The “activation of Iba-1-positive microglial cells and GFAP-positive astrocytes, in words” value in experiment [2] is recorded as “less prominent”. Besides, in experiment [2] (Control 3.3 ± 1.2, Vehicle + I/R 24.7 ± 1.6), the “Iba-1-positive Microglia” value was 5.8 ± 1.0 /400 × field. Besides, in experiment [2] (Control 6.9 ± 2.0, Vehicle + I/R 28.6 ± 2.2), the “GFAP-positive astrocytes” value is listed as 10.3 ± 1.8 /400 × field. Also, the “Number of TUNEL-positive cells in retina” value in experiment [3] (subconjunctival injection 1 mM 4 h before I/R, 20 hours after I/R injury, Vehicle + I/R 27.2 ± 2.7) is given as 7.8 ± 1.5 /200 μm. Also, the “I/R-induced retinal cell apoptosis (TUNEL staining), in words” value in experiment [3] (subconjunctival injection prior to I/R, 20 h reperfusion) is recorded as “only smaller numbers of green fluorescent nuclei”. Further, the “STAT3 phosphorylation (immunoblot)” value in experiment [4] is “led to STAT3 phosphorylation”.

Source of the values: US12221494B2, “Short synthetic peptides and their uses for treating retinal degenerative diseases and/or tissue injuries” (MacKay Memorial Hospital, priority 2019, dated 2025).
